# According to patent publication US20230372289A1, “ANDROGRAPHOLIDE DERIVATIVE FOR USE IN THE TREATMENT OF INFLAMMATORY DISEASES ASSOCIATED WITH A CYTOKINE STORM” (CONSEJO SUPERIOR DE INVESTIGACIONES CIENTÍFICAS (CSIC), priority 2020, published 2023):
# “Also recorded” adds a separate entry of the source.
# Tests used:
# [1] = system: cells involved in the inflammatory response; test: Cellular inflammatory response in transgenic larvae (LYZ:Red) after SVCV infection, treatment by microinjection; type: in vivo, Danio rerio; conditions: microinjection 2 nl concomitant with SVCV, 2 hpi, vs control groups
# Method: (§1) Anti-inflammatory activity studies of the compounds were carried out in wild type fish, determining the expression levels of the pro-inflammatory cytokines IL-1β and IL-6. Transgenic larvae with labeled fluorescent neutrophils (Tg(Mpx:GFP)i114) or fluorescent myeloid cells (Tg(LYZ:Red)) were also used to assess how different treatments affect the inflammatory response of these cells. The inflammatory stimulus used was both the virus itself, which causes activation of the inflammasome and death of macrophages by pyroptosis (Varela et al. J. Virol. 2016, 88, 12026), as well as an acute stimulus of inflammation generated by a wound in the tail. The migration of fluorescent leukocytes from these transgenic lines was studied by means of microscopy and image analysis.
# In a first assay, the cellular response to inflammation was quantified in transgenic Danio rerio larvae (LYZ:Red) after an infection with SVCV treated or untreated (control) with the AG1 compounds (28 μM), AG3 (10 μM), AG4 (10 μM), AG5 (10μM) and EAp (10 μg/ml). The treatments were carried out by microinjection (2 nl in the duct of Cuvier) of the drugs in fish 3 days post-fertilization (5-10 fish/well), concomitantly administering the virus and the different compounds. […] At 2 h post-injection (2 hpi), the number of cells involved in the inflammatory response was determined.
# [2] = system: Salmonella typhimurium strains TA98, TA100, TA102, TA1535 and TA1537; test: Ames test; type: cell-based
# Method: The aim of the study was to characterize the possible genotoxic effect of the assay product AG-5 by means of the Ames test (Ames et al. Proc. Nat. Acad. Sci. USA 1973, 70, 783). To that end, it was determined in a study carried out under GLP whether AG-5 has the ability to produce gene mutations, either by substitution or by mismatch, in Salmonella typhimurium bacteria histidine (His-) auxotrophs.
# The study was carried out with strains TA98, TA100, TA102, TA1535 and TA1537 in the presence and in the absence of metabolic activation (S9 mixture). The doses recommended by the OECD guidelines were tested: 100 mg/ml, that is, equivalent to 5000 μg/plate, and […] other lower concentrations (33.3; 11.1; 3.7 and 1.2 mg/ml). […] The results were negative in the 5 bacterial strains (TA98, TA100, TA102, TA1535 and TA1537) both in the presence and in the absence of metabolic activation.
# [3] = system: Wistar rats; test: Repeated dose toxicity, daily intravenous administration for 7 days (phase II); type: in vivo; conditions: AG-5 in PBS (3 mg/ml)
# Method: (§2) As part of the preclinical toxicity evaluation, the purpose of this study was to define the maximum repeated dose (MRD) of AG-5, formulated as a solution in PBS (3 mg/ml), in a mammalian rodent species under good laboratory practice (GLP) and to provide data of toxicological interest. To this end, a two-phase study was designed: i) in phase I, the product was administered intravenously in a single dose and following OECD guidelines 425 (OECD Guidelines for the testing of chemicals. Guidelines 425: Acute oral toxicity: up and down procedure. Adopted 3 Oct. 2008), to a total of 12 8-week old female Wistar rats by means of a dose escalation process (incremental factor 3.2), the maximum tolerated dose (MTD) was provisionally determined; ii) in phase II, the animals (a total of 8-week old Wistar rats, 15 males and 15 females) were given a daily intravenous administration for 7 days and the MRD was confirmed.
# The initial dose to be used in phase I was selected from the sequence of doses included in OECD guidelines 425, that is, 5.5, 17.5 and 30 mg/kg of body weight. […]
# [4] = system: New Zealand rabbits; test: as above; type: in vivo; conditions: AG-5 in PBS (3 mg/ml), intravenous daily for 7 days
# Method: (§3) As part of the preclinical evaluation of toxicity, the purpose of this study was to define the MRD of AG-5, formulated as a solution in PBS (3 mg/ml), in a non-rodent mammalian species, that is, rabbit, under GLP and to provide data of toxicological interest.
# (§4) To this end, a two-phase study was designed: i) in phase I, the product was administered intravenously in a single dose and following OECD guidelines 425, to a total of 4 New Zealand rabbits (2 males and 2 females) of about 2.5 kg and 12-13 weeks old, and the maximum tolerated dose (MTD) range was provisionally determined; ii) in phase II, the animals (a total of 4 New Zealand rabbits of about 2.5 kg and 12-13 weeks old) were given a daily intravenous administration for 7 days and the MRD that will serve as a reference (highest dose to be used) was confirmed.
# (§5) The initial dose to be used in phase I was selected based on the data obtained by the laboratory after the administration of AG-5 in rats at a repeated dose of up to 30 mg/kg, for 7 days. In this study, the dose of 30 mg/kg was established as the MRD to be used in subsequent general toxicity studies. […] The dose to be tested in phase II was determined based on the results obtained in phase I, selecting a dose from the dose interval lower than that at which serious toxic effects would have been observed, with a maximum of 15 mg/kg/day as MFD, in application of the ICH M3(R2) guideline. The study considered the complete assessment of the symptoms, that is, intensity, time of onset and reversibility, the study of analytical (hematological and biochemical) parameters and the determination of the weight of toxicity target organs, to be fundamental.
# [5] = system: Wistar rats; test: Single intravenous dose toxicity (phase I, OECD 425); type: in vivo; conditions: AG-5 in PBS (3 mg/ml)
# Method: as §2
# The initial dose to be used in phase I was selected from the sequence of doses included in OECD guidelines 425, that is, 5.5, 17.5 and 30 mg/kg of body weight. The doses to be tested in phase II were determined based on the results obtained in phase I, selecting 3 doses from the dose interval lower than that in which serious toxic effects would have been observed, that is, 15, 20 and 30 mg/kg/day, with 30 mg/kg being the maximum feasible dose (MFD), in application of the ICH M3(R2) guideline (ICH Harmonized Tripartite Guideline. Non-Clinical Safety Studies for the Conduct of Human Clinical Trials and Marketing Authorization for Pharmaceuticals M3 (R2). Current Step 5 version dated 11 Jun. 2009). The study considered the complete assessment of the symptoms, that is, intensity, time of onset and reversibility, the study of analytical (hematological and biochemical) parameters and the determination of the weight of toxicity target organs, to be fundamental.
# [6] = system: IL-6; test: IL-6 gene expression by qPCR in wild type larvae infected with SVCV, bath treatment; type: in vivo, Danio rerio; conditions: 10 μM bath for 24 h, then SVCV injection, qPCR at 24 h, vs untreated control groups
# Method: as §1
# In a third and final assay, the gene expression of proinflammatory cytokines was determined in Danio rerio (wild type) larvae treated with the AG1 (5 μM), AG3 (5 μM), AG4 (10 μM), AG5 (10 μM) compounds and EAp (10 μg/ml), and subsequently infected with SVCV. The treatments were carried out in a bath for 24 h on fish 1 day post-fertilization (10 fish/well). The experiment was carried out in quadruplicate (n=4). On the second day post-fertilization each fish was injected (2 nl in the duct of Cuvier) 5×10^4 TCID50/mL of SVCV. At 24 h, the expression of IL-6 was determined by qPCR.
# [7] = system: migration of neutrophils to the wound; test: Acute inflammatory response produced by a tail wound, neutrophil migration in Tg(Mpx:GFP)i114 larvae, bath treatment; type: in vivo, Danio rerio; conditions: 10 μM by bath, tail cut after 24 hours, neutrophils counted 24 hours after the wound
# Method: as §1
# In a second assay, the effect of the different compounds on an acute inflammatory response produced by a wound was analyzed. To that end, transgenic fish with fluorescent neutrophils (Tg(Mpx:GFP)i114) were used and their migration to the affected area was analyzed. The AG1 (5 μM), AG3 (5 μM), AG4 (10 μM), AG5 (10 μM) compounds and EAp (10 μg/ml) were administered by bath and after 24 hours the wound was made by cutting the end area of the tail. After 24 hours, neutrophils that migrated to the area of the wound were counted. […] FIG. 3.
# [8] = Solubility of the product in PBS; type: physicochemical; conditions: aqueous buffer
# [9] = system: New Zealand rabbits; test: Single intravenous dose toxicity (phase I, OECD 425); type: in vivo; conditions: AG-5 in PBS (3 mg/ml)
# Method: as §3, §4, §5
structure (smiles),measurement,setting,value
"C=C1CCC2C(C)(CO)C(O)CCC2(C)C1CC=C1C(=O)OCC1O (stereo not shown) [AG1, 3-[2-[-decahydro-6-hydroxy-5-(hydroxy-methyl)-5,8a-dimethyl-2-methylene-1-naphthalenyl]ethylidene]dihydro-4-hydroxy-2(3H)-furanone, reference compound]",cellular inflammatory response induced by the viral infection (number of cells involved in the inflammatory response),[1]; 28 μM,significantly reduce
"C=C1CC[C@@H]2[C@](C)(CO)[C@H](O)CC[C@@]2(C)[C@@H]1C[C@H](C1=CCOC1=O)S(=O)(=O)O [AG5, 14-deoxy-12(R)-sulfo-andrographolide]",precipitation of the product or toxicity (preliminary dose test),[2]; 100 mg/ml (5000 μg/plate) and lower concentrations (33.3; 11.1; 3.7 and 1.2 mg/ml),No precipitation of the product or toxicity was observed
same,mutagenicity test (gene mutations),"[2]; 5 strains, in the presence and in the absence of metabolic activation (S9 mixture), up to 5000 μg/plate",negative; also recorded: did not induce gene mutations
same,MRD (maximum repeated dose),[3]; intravenous daily for 7 days,30 mg/kg
same,"changes in analytical parameters, macroscopic alterations in abdominal and thoracic organs, absolute or relative weight of the organs","[3]; intravenous daily for 7 days, 15, 20 and 30 mg/kg",No toxicologically relevant changes
same,"changes in analytical parameters, macroscopic alterations in abdominal and thoracic organs, absolute or relative weight of the organs","[4]; 15 mg/kg, rabbit study",No toxicologically relevant changes
same,mortality or alterations in the general symptoms,"[4]; 15 mg/kg, rabbit study",did not produce mortality or alterations in the general symptoms
same,MRD (maximum repeated dose),[4]; rabbits,15 mg/kg
same,LD50 estimated in rats,[5],greater than 30 mg/kg of body weight
same,MTD level in rats in a single dose,[5],30 mg/kg of body weight
same,signs of toxicity related to the administration,[5]; all doses tested in phase I,nor did it produce signs of toxicity
same,IL-6 production (gene expression) in infection by SVCV,[6],significantly reduce
same,cellular inflammatory response induced by the viral infection (number of cells involved in the inflammatory response),[1]; 10 μM,significantly reduce
same,inflammatory response generated by the migration of neutrophils to the wound,[7],significantly decreased
same,solubility,[8],3000 µg/mL
same,LD50 estimated in rabbits,[9]; intravenous single dose,greater than 15 mg/kg of body weight
same,MTD level in rabbits in a single dose,[9]; intravenous single dose,15 mg/kg of body weight
same,lethality,"[9]; intravenous single dose 15 mg/kg, New Zealand rabbits",did not produce lethality in any animal
same,associated signs of toxicity,"[9]; intravenous single dose 15 mg/kg, rabbits",No associated signs of toxicity were observed
